The source of these data is ChEMBL document CHEMBL3600345, “Docking of competitive inhibitors to the P2X7 receptor family reveals key differences responsible for changes in response between rat and human” (Bioorg Med Chem Lett, 2015).

Structures are written as SMILES.

For orientation: IC50 means the concentration that inhibits the measured activity by half. A high value points to weaker potency in that assay.

For experiment [1], the target named is T1, P2X purinoceptor 7 (Homo sapiens, UniProt Q99572).
T1 sequence (Q99572 whole entry): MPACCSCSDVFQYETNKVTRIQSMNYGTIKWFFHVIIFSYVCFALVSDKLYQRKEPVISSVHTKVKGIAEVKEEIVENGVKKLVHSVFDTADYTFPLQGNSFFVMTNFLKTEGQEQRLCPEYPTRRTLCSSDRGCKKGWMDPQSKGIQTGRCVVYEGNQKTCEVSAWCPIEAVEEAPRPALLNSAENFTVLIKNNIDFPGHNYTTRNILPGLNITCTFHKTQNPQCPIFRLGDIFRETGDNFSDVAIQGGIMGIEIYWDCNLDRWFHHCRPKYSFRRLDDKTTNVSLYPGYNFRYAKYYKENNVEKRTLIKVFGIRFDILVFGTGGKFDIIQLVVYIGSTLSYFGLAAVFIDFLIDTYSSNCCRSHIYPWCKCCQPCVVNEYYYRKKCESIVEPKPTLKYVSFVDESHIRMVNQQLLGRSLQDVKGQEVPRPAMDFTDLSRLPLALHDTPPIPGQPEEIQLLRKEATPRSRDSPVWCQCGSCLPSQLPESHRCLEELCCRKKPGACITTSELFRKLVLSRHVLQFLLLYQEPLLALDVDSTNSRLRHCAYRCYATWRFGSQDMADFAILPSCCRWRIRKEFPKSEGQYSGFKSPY
The experiment is described as follows: Inhibition of human P2X7 receptor.

The target of experiment [2] is T2, P2X purinoceptor 7 (Rattus norvegicus, UniProt Q64663).
T2 sequence (Q64663 whole entry): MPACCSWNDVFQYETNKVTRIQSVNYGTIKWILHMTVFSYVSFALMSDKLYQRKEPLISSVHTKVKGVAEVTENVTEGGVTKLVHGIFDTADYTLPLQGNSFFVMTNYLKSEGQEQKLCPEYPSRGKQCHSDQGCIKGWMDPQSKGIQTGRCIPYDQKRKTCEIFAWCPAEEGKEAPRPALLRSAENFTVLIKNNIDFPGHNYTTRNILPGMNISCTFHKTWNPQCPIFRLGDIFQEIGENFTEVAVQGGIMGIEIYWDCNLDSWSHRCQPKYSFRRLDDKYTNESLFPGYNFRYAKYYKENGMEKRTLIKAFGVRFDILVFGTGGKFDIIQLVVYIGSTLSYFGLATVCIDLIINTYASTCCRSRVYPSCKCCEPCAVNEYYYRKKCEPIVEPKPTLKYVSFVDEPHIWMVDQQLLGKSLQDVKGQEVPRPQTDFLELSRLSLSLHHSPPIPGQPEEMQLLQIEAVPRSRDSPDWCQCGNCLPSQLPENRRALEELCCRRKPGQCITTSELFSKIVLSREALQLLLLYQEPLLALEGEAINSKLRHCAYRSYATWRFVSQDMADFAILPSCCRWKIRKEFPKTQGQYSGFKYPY
The experiment can be described thus: Inhibition of rat P2X7 receptor.

Experiment [3] can be described thus: Inhibition of rhesus macaque P2X7 receptor. Set-up: species or system Macaca mulatta.
Experiment [4] deals with T3, P2X purinoceptor (Cavia porcellus, UniProt A9QW74).
T3 sequence (A9QW74 whole entry): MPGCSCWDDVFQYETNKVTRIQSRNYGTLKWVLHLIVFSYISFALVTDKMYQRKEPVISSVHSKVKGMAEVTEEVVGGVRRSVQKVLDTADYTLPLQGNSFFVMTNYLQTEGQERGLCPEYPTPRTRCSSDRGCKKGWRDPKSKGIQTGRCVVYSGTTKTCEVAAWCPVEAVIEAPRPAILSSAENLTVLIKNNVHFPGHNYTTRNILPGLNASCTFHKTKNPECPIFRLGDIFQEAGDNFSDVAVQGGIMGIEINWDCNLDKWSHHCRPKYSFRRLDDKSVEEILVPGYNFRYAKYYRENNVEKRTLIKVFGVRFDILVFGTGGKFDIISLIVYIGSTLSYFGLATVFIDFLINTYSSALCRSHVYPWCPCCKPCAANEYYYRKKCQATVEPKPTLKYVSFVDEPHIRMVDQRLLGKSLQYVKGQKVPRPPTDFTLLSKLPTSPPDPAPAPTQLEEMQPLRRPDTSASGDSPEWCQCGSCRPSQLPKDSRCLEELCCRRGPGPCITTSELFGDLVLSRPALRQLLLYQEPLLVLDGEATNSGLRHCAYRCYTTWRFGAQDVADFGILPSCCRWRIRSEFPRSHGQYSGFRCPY
The experiment can be described thus: Inhibition of guinea pig P2X7 receptor.

The target in experiment [5] is T4, P2X7 purinoceptor (Canis lupus familiaris, UniProt Q64F92).
T4 sequence (Q64F92 whole entry): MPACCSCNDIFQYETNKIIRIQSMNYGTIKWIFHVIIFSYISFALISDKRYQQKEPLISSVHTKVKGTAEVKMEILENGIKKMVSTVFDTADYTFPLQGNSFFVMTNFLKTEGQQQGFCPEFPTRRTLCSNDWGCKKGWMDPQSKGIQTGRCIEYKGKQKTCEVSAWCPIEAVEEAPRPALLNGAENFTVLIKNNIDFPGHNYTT
The experiment is described as follows: Inhibition of dog P2X7 receptor.

For `CN([C@@H](Cc1ccc(OS(=O)(=O)c2cccc3cnccc23)cc1)C(=O)N1CCN(c2ccccc2)CC1)S(=O)(=O)c1cccc2cnccc12`, the IC50 in experiment [1] was 100 nM; in experiment [2] it was greater than 100000 nM; in experiment [3], 86 nM; in experiment [4] it was 130 nM; in experiment [5] it was 10 nM.

Regarding `O=C1CSC(=O)N1C(CCc1ccncc1)COc1ccc(-c2cccc([N+](=O)[O-])c2)cc1` (stereo not given), the values for the IC50 in experiment [1], in experiment [2] and in experiment [3] were 31 nM, greater than 100000 nM and 23 nM, respectively.

For `C[S+]([O-])c1ccc(-c2nc(-c3ccncc3)c(-c3ccc(F)cc3)[nH]2)cc1` (stereo not given) [SB-203580], the figures for the IC50 in experiment [1] and in experiment [2] were 5000 nM and greater than 30000 nM, respectively.
